# Measured values reported in PMC8058733, “A pain killer without analgesic tolerance designed by co-targeting PSD-95-nNOS interaction and α2-containning GABAARs” (Theranostics, 2021).
# Key:
# [1] = system: SNL-induced mechanical hyperalgesia; experiment: SNL-induced mechanical hyperalgesia, von Frey; assay type: in vivo, mice
# Experimental: (§1) Neuropathic pain was induced by segmental spinal nerve ligation (SNL). Animals were anesthetized with isoflurane. After the loss of righting reflex, the animal was fixed in the prone position. The SNL model was prepared as described previously: a median skin incision with about 3-5 cm length in L4-S2 level of the mouse back was made, the muscles next to the vertebrae till the sixth lumbar protruding were separated, the L5/L6 joint protruding on the right side was exposed and excised, and L6 processus transversus was partially split so that the L4-L6 spinal nerves on the right side were exposed. L5 nerve was gently isolated and tightly ligated with 5-0 silk thread. The wound was closed with 4-0 silk thread suture and covered with iodine solution. After nerve ligation, animals with signs of paw clonus or autotomy were excluded from further experiments.
# For mice, the threshold for 50% PWT response to mechanical stimulus was quantified by assessing the paw withdrawal threshold using von Frey filaments (Touch-Test TM Sensory Evaluator, North coast Medical, Inc.). Mice were placed individually in a plastic cage (4.5 × 5 × 11 cm) with a wire mesh bottom which allowed full access to the paws. Behavioral accommodation was allowed for 20-30 min until cage exploration and major grooming activities ceased. Mechanical threshold was measured by applying a von Frey filament to the ventral surface of the right hind paw until a positive sign of pain behavior was elicited. The paradigm for assessing the threshold was as follows. Von Frey filaments with logarithmically incremental stiffness (0.02-2 g) were applied serially to the paw by the up-down method. The filaments were presented, in ascending order of strength, perpendicular to the plantar surface with sufficient force to causes light bending against the paw and held for 4s. A positive response was noted if the paw was sharply withdrawn. Flinching immediately upon removal of the hair was also considered a positive response. The 2-g filament was selected as the upper limit cut-off for testing. If there was no response at 2-g filament, animals were assigned this cut-off value. The pattern of positive and negative withdrawal responses was converted to 50% threshold according to the formula: 50% PWT = 10 log (X) + κδ. X = value (in log unit) of the final von Frey hair used; κ is correction factors based on the pattern of responses from the calibration table; δ = mean difference in log units between stimuli (here, 0.224).
# PSD-95-nNOS complex = biological target: T1, PSD-95-nNOS complex (Rattus norvegicus, UniProt P29476); experiment: Co-IP of PSD-95-nNOS complex levels in the spinal dorsal horn after SNL; assay type: in vivo; details: SNL rats treated by ZL006-05
# T1 construct: dorsal spinal cord tissues (L4 and L5) were lysed in 400 μl RIPA; from tissue; host or cells: rat dorsal spinal cord (L4 and L5), SNL model
# motor coordination = experiment: Rotarod test, motor coordination; assay type: in vivo; details: rats, 30 min after injection, ZL006-05 60 mg/kg, i.v., diazepam 0.5 mg/kg
# [2] = system: CFA-induced inflammatory pain; experiment: CFA-induced inflammatory pain, paw withdrawal threshold; assay type: in vivo; details: mice, ZL006-05 60 mg/kg, i.g., given 24 h after CFA injection
# Experimental: For mice, the threshold for 50% PWT response to mechanical stimulus was quantified by assessing the paw withdrawal threshold using von Frey filaments (Touch-Test TM Sensory Evaluator, North coast Medical, Inc.). Mice were placed individually in a plastic cage (4.5 × 5 × 11 cm) with a wire mesh bottom which allowed full access to the paws. Behavioral accommodation was allowed for 20-30 min until cage exploration and major grooming activities ceased. Mechanical threshold was measured by applying a von Frey filament to the ventral surface of the right hind paw until a positive sign of pain behavior was elicited. The paradigm for assessing the threshold was as follows. Von Frey filaments with logarithmically incremental stiffness (0.02-2 g) were applied serially to the paw by the up-down method. […]
# (A) Time course of SNL-induced thermal hyperalgesia after treating with ZL006-05 (60 mg/kg, i.g.) in mice. Paw withdrawal latency response to thermal stimulation was detected at 0, 1, 2, 4, 6, 8, 10, 12 and 24 h after drug administration. ( B) Areas under the curve of paw withdrawal latency 0-24 h after treatment calculated from ( A) (F (1,16) = 43.07, ***p < 0.001, two-tailed t-test, n = 9). […] (E) Areas under the curve of paw withdrawal latency 0-24 h after treatment calculated from (D) (F (1,18) = 71.73, ***p <0.001, two-tailed t-test, n = 10). […]
# [3] = system: laminae I excitatory neurons in the SDH; experiment: mIPSCs/mEPSCs recordings from acute spinal slices of chronically treated rats; assay type: in vivo, rat; details: rats, ZL006-05 0.3 mg/d intrathecal infusion ×11 d
# From the text: Osmotic minipumps (models 1004 for mouse and 2ML4 for rat; Alzet) and intrathecal cannulas (0.61 mm outer diameter and 0.28 mm inner diameter for mouse, 0.99 mm outer diameter and 0.58 mm inner diameter for rat) were filled with a solution of PBS. Cannulas were inserted into the subarachnoid space through the space between the L5 and L6 vertebrae and the tip of the catheter was implanted at the L5 spinal segmental level.
# All solutions were bubbled with 95% O2 -5% CO2.
# For mPSCs measurements, whole-cell recordings were made from putative excitatory neurons in superficial dorsal horn using low-resistance pipettes (4-8 MΩ). Before mPSCs measurements, excitatory neurons were distinguished from inhibitory neurons by firing pattern analysis according to the established relationship between neuronal firing pattern and its neurotransmitter phenotype, [32]-[34] For mEPSCs measurement, the membrane potential was held at -60 mV. […] Tetrodotoxin (0.5 μM) and bicuculline (20 μM) were added to block action potentials and GABAA receptor-mediated currents respectively. For mIPSCs measurement, the membrane potential was held at -70 mV, microelectrodes were filled with internal pipette solution containing CsCl 140, HEPES 10.0, MgATP 4.0, NaGTP 3.0, EGTA 1.0, MgCl2 1.0, CaCl2 0.3 (in mM). […]. […] Each recording lasts more than 5 min. Data were analyzed using Mini software. Up to 120 events from each neuron were selected at a fixed sampling interval to generate cumulative probability.
# [4] = system: SNL-induced thermal hyperalgesia; experiment: SNL-induced thermal hyperalgesia, paw withdrawal latency; assay type: in vivo, mice; details: mice, ZL006-05 60 mg/kg, i.g., 0-24 h
# Experimental: as §1, with “The wound was closed with 4-0 silk thread suture and covered with iodine solution. After nerve ligation, animals with signs of paw clonus or autotomy were excluded from further experiments.” left out
# Paw withdrawal latency (PWL) response to thermal stimulus was assessed through the Hargreaves test. […] To record the PWL in response to thermal stimulus, each animal was measured five times with a 5-min interval, and the mean value was recorded after excluding maximal and minimum values. […]
# (A) Time course of SNL-induced thermal hyperalgesia after treating with ZL006-05 (60 mg/kg, i.g.) in mice. Paw withdrawal latency response to thermal stimulation was detected at 0, 1, 2, 4, 6, 8, 10, 12 and 24 h after drug administration. ( B) Areas under the curve of paw withdrawal latency 0-24 h after treatment calculated from ( A) (F (1,16) = 43.07, ***p < 0.001, two-tailed t-test, n = 9). […]
# T1 sequence (P29476 whole entry, one chain of several): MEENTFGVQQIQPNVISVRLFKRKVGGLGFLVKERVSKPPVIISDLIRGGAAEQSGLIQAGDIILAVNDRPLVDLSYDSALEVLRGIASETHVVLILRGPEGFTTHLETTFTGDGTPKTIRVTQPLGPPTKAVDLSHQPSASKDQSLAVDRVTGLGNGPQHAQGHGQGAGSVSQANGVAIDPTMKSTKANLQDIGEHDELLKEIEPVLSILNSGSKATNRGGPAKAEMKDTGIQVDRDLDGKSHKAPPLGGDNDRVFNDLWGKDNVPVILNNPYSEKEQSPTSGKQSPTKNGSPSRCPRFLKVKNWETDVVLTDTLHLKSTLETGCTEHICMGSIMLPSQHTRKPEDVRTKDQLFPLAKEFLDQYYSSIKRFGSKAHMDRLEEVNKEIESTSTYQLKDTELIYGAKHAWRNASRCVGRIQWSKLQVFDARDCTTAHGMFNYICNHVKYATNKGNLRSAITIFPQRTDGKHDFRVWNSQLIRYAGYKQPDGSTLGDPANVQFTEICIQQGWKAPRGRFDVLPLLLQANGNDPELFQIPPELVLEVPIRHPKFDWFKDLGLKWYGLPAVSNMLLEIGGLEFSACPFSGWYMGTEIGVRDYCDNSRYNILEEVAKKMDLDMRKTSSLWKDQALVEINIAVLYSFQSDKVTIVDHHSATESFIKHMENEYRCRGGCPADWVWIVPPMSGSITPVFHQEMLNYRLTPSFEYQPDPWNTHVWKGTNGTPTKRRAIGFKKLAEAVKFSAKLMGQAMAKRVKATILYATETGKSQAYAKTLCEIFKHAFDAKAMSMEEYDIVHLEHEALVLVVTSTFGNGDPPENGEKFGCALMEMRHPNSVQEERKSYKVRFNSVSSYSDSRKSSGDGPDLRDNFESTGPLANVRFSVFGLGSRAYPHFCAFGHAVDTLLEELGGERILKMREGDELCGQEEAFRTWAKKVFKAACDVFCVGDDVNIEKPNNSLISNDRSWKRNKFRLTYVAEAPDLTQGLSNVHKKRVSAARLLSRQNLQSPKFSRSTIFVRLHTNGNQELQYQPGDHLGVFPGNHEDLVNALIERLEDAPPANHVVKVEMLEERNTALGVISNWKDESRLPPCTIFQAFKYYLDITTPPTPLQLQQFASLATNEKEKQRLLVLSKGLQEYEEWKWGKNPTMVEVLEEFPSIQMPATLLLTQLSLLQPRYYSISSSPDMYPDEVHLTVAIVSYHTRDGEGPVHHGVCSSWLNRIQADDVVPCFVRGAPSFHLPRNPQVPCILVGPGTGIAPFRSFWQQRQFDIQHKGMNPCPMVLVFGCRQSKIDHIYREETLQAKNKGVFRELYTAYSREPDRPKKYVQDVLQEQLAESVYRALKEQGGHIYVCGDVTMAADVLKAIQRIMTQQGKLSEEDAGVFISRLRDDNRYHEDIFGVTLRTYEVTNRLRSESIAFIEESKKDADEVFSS
smiles,measurement,setting,value
CC1(C)C2CCC1(C)C(OC(=O)c1ccc(NCc3cc(Cl)cc(Cl)c3O)cc1O)C2 (stereo not drawn) [ZL006-05],"Analgesic tolerance, mechanical hyperalgesia, 28 days treatment","[1]; SNL mice, ZL006-05 60 mg/kg/d, i.g., × 28 d, pregabalin 30 mg/kg/d",maintained its antinociceptive effect during 28 days treatment
same,"Analgesic tolerance, mechanical hyperalgesia","[1]; SNL nNOS-/- and WT mice, ZL006-05 60 mg/kg/d, i.g., 11 d",caused a remarkable analgesic tolerance in nNOS^-/- mice but not in WT mice
same,Effect on SNL-induced mechanical hyperalgesia,"[1]; mice, ZL006-05 i.g., single administration, 0-12 h",reduced SNL-induced mechanical hyperalgesia
same,PSD-95-nNOS complex level in the SDH,PSD-95-nNOS complex,abolished the SNL-induced increase in PSD-95-nNOS complex in the SDH
same,"Motor coordination, time spent on the accelerating rotarod",motor coordination,had no effect
same,Effect on CFA-induced inflammatory pain,[2],reduced
same,mEPSCs,[3],without affecting mEPSCs
same,mIPSCs,[3],significantly increased mIPSCs amplitude
same,Effect on SNL-induced thermal hyperalgesia,[4],reduced SNL-induced mechanical hyperalgesia and thermal pain
